Assay results from patent US20040266863A1, “Use of (11beta,17beta)-11-(1,3-benzodioxol-5-yl)-17-hydroxy-17-(1-propynyl)-estra-4,9-dien-3-one in the treatment of major depressive disorder” (priority 2001, published 2004).

Tests used:
[1] = system: (healthy) humans; assay: clinical study of antiglucocorticoid activity in healthy humans (cortisol increase, dexamethason antagonism); type: in vivo, human
[2] = molecular target: T1, glucocorticoid receptor (Homo sapiens, UniProt P04150); assay: in vitro binding to the glucocorticoid receptor
T1 sequence (P04150 1-777): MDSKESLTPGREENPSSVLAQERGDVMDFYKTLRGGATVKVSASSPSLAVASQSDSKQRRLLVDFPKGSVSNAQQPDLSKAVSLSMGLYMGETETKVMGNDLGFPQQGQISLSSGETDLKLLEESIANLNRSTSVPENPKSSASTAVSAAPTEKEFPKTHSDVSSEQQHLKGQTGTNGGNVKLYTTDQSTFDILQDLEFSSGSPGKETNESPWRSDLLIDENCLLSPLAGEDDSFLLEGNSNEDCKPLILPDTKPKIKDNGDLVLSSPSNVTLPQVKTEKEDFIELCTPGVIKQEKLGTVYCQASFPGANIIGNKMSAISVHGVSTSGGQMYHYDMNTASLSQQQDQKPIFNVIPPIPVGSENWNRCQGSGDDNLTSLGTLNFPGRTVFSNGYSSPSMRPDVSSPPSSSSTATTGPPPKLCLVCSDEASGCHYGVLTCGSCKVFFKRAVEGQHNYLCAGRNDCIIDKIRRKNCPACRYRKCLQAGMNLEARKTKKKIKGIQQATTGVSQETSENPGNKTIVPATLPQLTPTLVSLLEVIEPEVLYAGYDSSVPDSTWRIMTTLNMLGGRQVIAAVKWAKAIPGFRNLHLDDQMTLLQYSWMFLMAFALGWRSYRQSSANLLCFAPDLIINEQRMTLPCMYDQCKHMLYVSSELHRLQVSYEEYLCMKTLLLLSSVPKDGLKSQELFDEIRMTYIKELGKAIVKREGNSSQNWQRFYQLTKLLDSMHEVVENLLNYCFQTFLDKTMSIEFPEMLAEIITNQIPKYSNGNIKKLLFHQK

[3] = system: depressed patients (Major Depressive Disorder); assay: double blind, 4 week, paroxetine controlled study in patients with Major Depressive Disorder (HAMD-21); type: in vivo, human; details: for difference on the Hamilton scale versus paroxetine (onset of antidepressant effect): 150 mg treatment group
Description: A double blind, 4 week, paroxetine controlled study of Org 34517 in depressed patients was carried out. Paroxetine is a selective serotonin re-uptake inhibitor which is recognized as an effective antidepressant for major depression.
Patients were randomly allocated to one of three treatment groups. Group I patients (Org 150 group: 50 patients) received 2 capsules with 75 mg of Org 34517 and one placebo (total daily dose 150 mg) for the first 2 weeks and 2 capsules with 75 mg Org 34517 and 1 capsule with 150 mg (total daily dose 300 mg) the next 2 weeks; Group II patients (Org 450 group: 46 patients) received 3 capsules with 150 mg Org 34517 (total daily dose 450 mg) in the first 2 weeks and 4 capsules of Org 34517 (total daily dose 600 mg) in the next 2 weeks; Group III patients (paroxetine group: 44 patients) received 2 capsules with 10 mg paroxetine and one placebo capsule (total daily dose 20 mg) for the first 2 weeks, followed by 2 capsules of 10 mg and one capsule of 20 mg paroxetine (total daily dose 40 mg) in the next 2 weeks. Medication was administered orally in the morning. Efficacy assessment was done on days 4, 7, 10, 14, 21, 28 and 35 by using the 21-item HAMD scale.
Afternoon cortisol plasma levels (ACT=afternoon cortisol test) were measured as described by Halbreich et al (J. Clin. Endocrinol. Metab. 54(6), 1262, 1982).

[4] = system: immature dexamethasone treated male rats; assay: in vivo antiglucocorticoid activity in immature dexamethasone treated male rats (procedure of Kloosterboer et al); design: species or system rat; details: for threshold dose for demonstrating in vivo antiglucocorticoid effects: rat
[5] = system: patients with psychotic major depression; details: 8-12 mg/kg/day over 4 days (WO 99/17779); cited from earlier work

Structure (SMILES)	antiglucocorticoid potency relative to mifepristone, estimated on the amount of dexamethason antagonism [1] [%]	antiglucocorticoid potency relative to mifepristone, estimated on the basis of the cortisol increase [1]	potency in in vitro binding to the glucocorticoid receptor, relative to mifepristone [2] [%]	difference on the Hamilton scale versus paroxetine (onset of antidepressant effect) ([3]; all patients, day 10, FIG. 1) [point]	onset of antidepressant effect ([3]; daily dosage not exceeding 300 mg compared with 450 mg or more)	difference on the Hamilton scale versus paroxetine (onset of antidepressant effect) ([3]; dexamethason non-suppressors, day 10, FIG. 3) [point]	difference on the Hamilton scale versus paroxetine (onset of antidepressant effect) ([3]; patients with afternoon plasma cortisol higher than 10 μg/dl at start, day 10, FIG. 2) [point]	antiglucocorticoid activity: effect (weight gain) on body weight, adrenals, thymus and spleen ([4]; orally applied, 10 mg/kg to 40 mg/kg, immature dexamethasone treated male rats)	threshold dose for demonstrating in vivo antiglucocorticoid effects [4] [mg/kg]	treatment of psychosis associated with psychotic major depression [5]
CC#C[C@]1(O)CC[C@H]2[C@@H]3CCC4=CC(=O)CCC4=C3[C@@H](c3ccc4c(c3)OCO4)C[C@@]21C [Org 34517, (11β,17β)-11-(1,3-benzodioxol-5-yl)-17-hydroxy-17-(1-propynyl)estra-4,9-dien-3-one]	17	10-25%	52	~2	fast onset of antidepressant effect	~6	~4	proved to increase with the dose	20	–
CC#C[C@]1(O)CC[C@H]2[C@@H]3CCC4=CC(=O)CCC4=C3[C@@H](c3ccc(N(C)C)cc3)C[C@@]21C [mifepristone, 17β-hydroxy-11β-(4-dimethylaminophenyl)-17α-(1-propynyl)estra-4,9-dien-3-one, reference compound]	–	–	–	–	–	–	–	–	5	effective
